Consider 17 compounds from PubChem BioAssay (NCI).

“And” between values parts separate entries of the source, which are not always exact repeats. Equal entries are not always repeated.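 Protocol summary: plate cells (96-well), add compound at 5 concentrations, incubate 48 h, interpolate endpoints linearly. GI50 marks 50% less growth. TGI: total growth inhibition.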

Among the test systems are A549 NSCLC; DMS 273 small cell lung; HCT-116 colon; HL-60(TB) leukemia; HOP-92 NSCLC; OVCAR-4 ovarian; SNB-19 CNS; SNB-78 CNS; 786-0 renal; DU-145 prostate; MDA-MB-435.
Holding throughout (assay): growth of human tumour cells (NCI), 48 h

On to `COC(=O)[C@@H](O)[C@](O)(CCC(C)C)C(=O)O[C@@H]1C(OC)=C[C@]23CCCN2CCc2cc4c(cc2[C@H]13)OCO4`, for which the TGI in the assay with A549 NSCLC was 5.19 µM; in the assay on DMS 273 small cell lung, 3.47 µM; in the assay on HCT-116 colon it was 2.57 µM; with HL-60(TB) leukemia, 2.96 µM; in the assay with HOP-92 NSCLC, 6.26 µM; with OVCAR-4 ovarian it was 5.77 µM. The TGI in the assay with SNB-19 CNS amounted to 2.67 µM; in the assay on SNB-78 CNS, 10.9 µM.
Take `COc1ccc(/C=c2\sc3n(c2=O)CCN=3)cc1`: the TGI with A549 NSCLC was > 100 µM; in the assay with HCT-116 colon, > 100 µM; with HL-60(TB) leukemia, > 100 µM; in the assay on HOP-92 NSCLC, 95.8 µM; with OVCAR-4 ovarian, > 100 µM; in the assay with SNB-78 CNS, > 100 µM.
As to `Cc1ccc(NC(=O)CC2Sc3ccccc3NC2=O)cc1C` (centres undefined), the TGI in the assay with A549 NSCLC was > 100 µM; in the assay with DMS 273 small cell lung, > 100 µM; in the assay with HCT-116 colon, > 100 µM; with HL-60(TB) leukemia, 66.1 µM; in the assay on HOP-92 NSCLC, 95.8 µM; in the assay with OVCAR-4 ovarian, > 100 µM. In addition, the TGI in the assay with SNB-19 CNS and in the assay on SNB-78 CNS was > 100 µM throughout.
With `COc1ccc2[nH]cc(/C=C(/C)c3ccncc3)c2c1`, the GI50 with A549 NSCLC is 5.48 µM; in the assay with DMS 273 small cell lung, 2.37 µM; in the assay on HCT-116 colon, 3.67 µM; in the assay on HOP-92 NSCLC, 13.3 µM; with OVCAR-4 ovarian, 17.9 µM; in the assay on SNB-19 CNS, 15.5 µM. For the same compound, in the assay with SNB-78 CNS, the GI50 was 9.43 µM. In addition, the TGI in the assay with A549 NSCLC is > 100 µM; in the assay with DMS 273 small cell lung, 19.6 µM and 10.5 µM; in the assay on HCT-116 colon it was 16.8 µM and 20.5 µM; in the assay with HL-60(TB) leukemia, 3.93 µM; in the assay with HOP-92 NSCLC it was > 100 µM and 52.6 µM; in the assay on OVCAR-4 ovarian it was > 100 µM. Moreover, the TGI in the assay with SNB-19 CNS and in the assay on SNB-78 CNS was > 100 µM in each case.
Turning to `CC1=C(Cl)C=CP(=O)(Oc2ccccc2)C1` (centres undefined), the TGI in the assay on A549 NSCLC was > 100 µM; with DMS 273 small cell lung it was 75.9 µM; in the assay on HCT-116 colon it was > 100 µM; in the assay on HL-60(TB) leukemia, > 10 µM; in the assay with HOP-92 NSCLC, > 100 µM; with OVCAR-4 ovarian it was > 100 µM. In addition, the TGI in the assay with SNB-19 CNS and in the assay on SNB-78 CNS was > 100 µM each time.
Turning to `Nc1c(S(=O)(=O)O)cc2cc(S(=O)(=O)O)ccc2c1N=Nc1ccc(-c2ccc(N=Nc3c(N)c(S(=O)(=O)O)cc4cc(S(=O)(=O)O)ccc34)c(S(=O)(=O)O)c2)cc1`, the TGI in the assay on A549 NSCLC is > 100 µM; in the assay with DMS 273 small cell lung, > 100 µM; in the assay on HCT-116 colon, > 100 µM; with HL-60(TB) leukemia, > 100 µM; in the assay with HOP-92 NSCLC, > 100 µM; in the assay with OVCAR-4 ovarian, 74.7 µM. For the same compound, the TGI with SNB-19 CNS and with SNB-78 CNS was > 100 µM throughout.
For the compound `N#C/C(=C1/Sc2c(nc[nH]c2=O)N1c1ccccc1)c1nc2ccccc2[nH]1`, the TGI in the assay with A549 NSCLC, with DMS 273 small cell lung, with HCT-116 colon, with HL-60(TB) leukemia, in the assay with HOP-92 NSCLC and in the assay on OVCAR-4 ovarian was > 100 µM throughout. Also, the TGI in the assay with SNB-19 CNS and with SNB-78 CNS was > 100 µM throughout.
Regarding `Nn1c(Nc2ccc(S(=O)(=O)Nc3ncccn3)cc2)nnc(/C=C/c2c(O)ccc3ccccc23)c1=O`, the TGI is 73.6 µM with 786-0 renal; > 100 µM with A549 NSCLC; > 100 µM with DU-145 prostate; 51.1 µM in the assay on HCT-116 colon; 45.2 µM in the assay with HL-60(TB) leukemia; > 100 µM in the assay with HOP-92 NSCLC. Moreover, the TGI in the assay on MDA-MB-435 was 69.4 µM; with OVCAR-4 ovarian, > 100 µM; with SNB-19 CNS it was > 100 µM.
In the case of `C[C@]12CCC3C4=C(CCC3C1CCC2=O)C(=O)[C@H]1O[C@H]1C4=O` (some centres undefined), the TGI with 786-0 renal was determined as 3.94 µM; in the assay with A549 NSCLC, 26.4 µM; with DU-145 prostate, 8.41 µM; in the assay on HCT-116 colon it was 2.16 µM; in the assay on HL-60(TB) leukemia, 7.93 µM; in the assay on HOP-92 NSCLC, 16.8 µM. The results for the TGI in the assay with MDA-MB-435, in the assay with OVCAR-4 ovarian and in the assay with SNB-19 CNS were 24.9 µM, 7.96 µM and 30 µM, respectively.
As to `CCCCCCCC/C=C\CCCCCCCCCCCC(=O)O`, the TGI in the assay on A549 NSCLC was > 125 µM; in the assay on DMS 273 small cell lung, 48.7 µM; with HCT-116 colon it was 60.9 µM; in the assay with HL-60(TB) leukemia, 34.6 µM; in the assay with HOP-92 NSCLC it was 101 µM; in the assay on OVCAR-4 ovarian it was > 115 µM. The TGI in the assay on SNB-19 CNS is > 64.5 µM; in the assay with SNB-78 CNS, > 115 µM.
Turning to `COc1nncc2[nH]c(-c3ccccc3)cc12`, the TGI with 786-0 renal, in the assay with A549 NSCLC, in the assay on DU-145 prostate, with HCT-116 colon, in the assay with HL-60(TB) leukemia and with HOP-92 NSCLC was > 100 µM in each case. In addition, the TGI with MDA-MB-435, with OVCAR-4 ovarian and with SNB-19 CNS was > 100 µM throughout.
Take `CN(C)CCNS(=O)(=O)c1ccc(N)cc1`: the TGI in the assay on 786-0 renal, with A549 NSCLC, in the assay with DU-145 prostate, in the assay on HCT-116 colon, in the assay with HL-60(TB) leukemia and in the assay with HOP-92 NSCLC was > 100 µM throughout. The TGI with MDA-MB-435, in the assay with OVCAR-4 ovarian and with SNB-19 CNS was > 100 µM in each case.
With `COP(=O)(OC)C1=c2c(C)noc2=C2C=COC2C1=O` (centres undefined), the TGI in the assay with 786-0 renal, with A549 NSCLC, in the assay with DU-145 prostate, in the assay on HCT-116 colon, in the assay on HL-60(TB) leukemia and in the assay on HOP-92 NSCLC was > 100 µM each time. The TGI in the assay with MDA-MB-435, with OVCAR-4 ovarian and with SNB-19 CNS was > 100 µM throughout.
`Nc1nc(SCCC/C=C/I)nc2c1ncn2C1OC(COP(=O)(O)O)C(O)C1O` (centres undefined): the TGI in the assay with A549 NSCLC, with DMS 273 small cell lung, in the assay with HCT-116 colon, in the assay on HL-60(TB) leukemia, with HOP-92 NSCLC and with OVCAR-4 ovarian was > 100 µM in each case. In addition, the TGI with SNB-19 CNS and with SNB-78 CNS was > 100 µM each time.
For `CCOC(=O)N1CCN(Cc2cc(=O)n3ccc(C)cc3n2)CC1`, the TGI in the assay on 786-0 renal, in the assay on A549 NSCLC, with DU-145 prostate, in the assay with HCT-116 colon, with HL-60(TB) leukemia and with HOP-92 NSCLC was > 100 µM each time. The TGI with MDA-MB-435, in the assay with OVCAR-4 ovarian and in the assay with SNB-19 CNS was > 100 µM in each case.
Take `NS(=O)(=O)c1nnc(NC(=O)Nc2ccc(Cl)c(Cl)c2)s1`: the TGI was 67.5 µM in the assay on 786-0 renal; > 100 µM in the assay with A549 NSCLC; > 100 µM in the assay on DU-145 prostate; 42.4 µM in the assay with HCT-116 colon; > 100 µM with HL-60(TB) leukemia; 42.3 µM in the assay with HOP-92 NSCLC. Besides, the values for the TGI in the assay on MDA-MB-435, in the assay with OVCAR-4 ovarian and in the assay with SNB-19 CNS were 50 µM, > 100 µM and 55.8 µM, respectively.
Take `Cc1cc(C)nc(NS(=O)(=O)c2ccc(NC(=O)c3ccc4nc5ccccc5c(Nc5ccc(S(N)(=O)=O)cc5)c4c3)cc2)n1`: the TGI with 786-0 renal, with A549 NSCLC, with DU-145 prostate, in the assay with HCT-116 colon, with HL-60(TB) leukemia and in the assay on HOP-92 NSCLC was > 100 µM throughout. Further, the TGI in the assay on MDA-MB-435, in the assay on OVCAR-4 ovarian and in the assay on SNB-19 CNS was > 100 µM throughout.
